The values below come from ChEMBL document CHEMBL1201862, “PubChem BioAssay data set” (2004).

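In this assay, cells in 96-well plates receive the compound at five concentrations for 48 hours. Endpoints are linearly interpolated between the surrounding concentrations. GI50 = concentration required for 50% inhibition of growth.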 The source made the active and inactive calls. Rule as the data show it: active = GI50 up to about 1.1 µM and inactive = higher. A value given as a limit tells only on which side of the number the result lay.

Among the test systems are 786-0; A549; BT-549; CAKI-1; CCRF-CEM; DU-145; HCC 2998; HOP-92; LOX IMVI; MOLT-4; PC-3; RPMI-8226; SF-295; SK-MEL-28; SK-MEL-5; SK-OV-3; T47D; U-251; UACC-257; UO-31.
Common to all, as to experiment: growth of human tumour cells (NCI), 48 h

As to `CN1CCC23c4c5ccc(Oc6nnnn6-c6ccccc6)c4OC2c2[nH]c4ccccc4c2CC3(O)C1C5` (stereo unspecified), the GI50 was 1.77 µM (inactive) with 786-0; 3.96 µM (inactive) with A549; 16.5 µM (inactive) in the assay with BT-549; 2.16 µM (inactive) in the assay with CAKI-1; 2.08 µM (inactive) in the assay on CCRF-CEM; 7.16 µM (inactive) in the assay on DU-145. Further, the GI50 with HCC 2998 is 1.81 µM (inactive); in the assay on HOP-92, 2.07 µM (inactive); in the assay with LOX IMVI, 1.89 µM (inactive); with MOLT-4 it was 1.84 µM (inactive); in the assay with PC-3, 3.68 µM (inactive); in the assay with RPMI-8226, 2.22 µM (inactive). Moreover, the GI50 was 3.95 µM (inactive) with SF-295; 2.1 µM (inactive) in the assay on SK-MEL-28; 2.29 µM (inactive) with SK-MEL-5; 9.66 µM (inactive) with SK-OV-3; 6.71 µM (inactive) in the assay on T47D; 1.85 µM (inactive) in the assay with U-251. The figures for the GI50 in the assay on UACC-257 and with UO-31 were 1.83 µM (inactive) and 1.75 µM (inactive), respectively.
`COC(=O)/C=C\C(C#N)(C#N)/N=C/c1sccc1C`: the GI50 in the assay with 786-0 is 1.94 µM (inactive); with A549, 15 µM (inactive); with BT-549, 3.15 µM (inactive); in the assay with CAKI-1, 1.93 µM (inactive); with CCRF-CEM, 1 µM (active); in the assay with DU-145, 7.53 µM (inactive). The GI50 in the assay with HCC 2998 is 15.2 µM (inactive); in the assay with HOP-92 it was 1.91 µM (inactive); in the assay on LOX IMVI, 1.3 µM (inactive); in the assay on MOLT-4, 1.2 µM (inactive); in the assay with PC-3 it was 7.6 µM (inactive); in the assay with RPMI-8226 it was 5.04 µM (inactive). The GI50 was 18.2 µM (inactive) with SF-295; 4.88 µM (inactive) with SK-MEL-28; 1.55 µM (inactive) with SK-MEL-5; 18.4 µM (inactive) with SK-OV-3; 2.62 µM (inactive) in the assay on T47D; 10 µM (inactive) in the assay with U-251. The GI50 with UACC-257 is 11.1 µM (inactive); with UO-31, 1.77 µM (inactive).
As to `Cc1ccc([C@H]2CC(=O)C[C@H](c3ccc(C)cc3)C23C(=O)c2ccccc2C3=O)cc1`, the GI50 in the assay on 786-0 was 17.1 µM (inactive); in the assay with A549, 43.2 µM (inactive); in the assay with BT-549, 34.3 µM (inactive); in the assay with CAKI-1 it was 68.2 µM (inactive); in the assay with CCRF-CEM, 14 µM (inactive); in the assay on DU-145 it was > 100 µM (inactive). The GI50 in the assay on HCC 2998 is 57.3 µM (inactive); in the assay with HOP-92 it was 13.6 µM (inactive); in the assay with LOX IMVI, 9.98 µM (inactive); in the assay on MOLT-4, 27 µM (inactive); in the assay with PC-3, 14.9 µM (inactive); in the assay on RPMI-8226, 43.2 µM (inactive). Besides, the GI50 in the assay with SF-295 is 21.1 µM (inactive); with SK-MEL-28 it was > 100 µM (inactive); in the assay with SK-MEL-5 it was 34.4 µM (inactive); in the assay on SK-OV-3 it was 31.6 µM (inactive); in the assay on T47D, > 100 µM (inactive); in the assay with U-251 it was 16.7 µM (inactive). Also, the GI50 was 15.4 µM (inactive) in the assay with UACC-257 and > 100 µM (inactive) with UO-31.
Turning to `COc1cc2cc(C(=O)N3CC(COS(C)(=O)=O)c4c3cc(N)c3ccccc43)[nH]c2c(OC)c1OC` (stereo unspecified), the GI50 in the assay on 786-0 is < 0.01 µM (active); with A549, 0.0146 µM (active); with BT-549 it was 0.0187 µM (active); in the assay on CAKI-1 it was 0.0211 µM (active); in the assay on CCRF-CEM, 0.0128 µM (active); in the assay with DU-145, 0.0154 µM (active). The GI50 is 0.0148 µM (active) with HCC 2998; < 0.0266 µM (active) with HOP-92; 0.0172 µM (active) in the assay on LOX IMVI; 0.0149 µM (active) in the assay with MOLT-4; 0.0422 µM (active) with PC-3; 0.0175 µM (active) in the assay with RPMI-8226. Moreover, the GI50 is 0.0195 µM (active) with SF-295; 0.0266 µM (active) in the assay with SK-MEL-28; < 0.01 µM (active) in the assay with SK-MEL-5; 0.0444 µM (active) with SK-OV-3; 0.0385 µM (active) in the assay with T47D; 0.0141 µM (active) in the assay with U-251. Moreover, the GI50 with UACC-257 is 0.0209 µM (active); with UO-31 it was 0.0141 µM (active).
As to `Brc1cccc(C2ON=C(c3ccccc3)N2C23CC4CC(CC(C4)C2)C3)c1` (stereo unspecified), the GI50 in the assay with 786-0, in the assay with A549, in the assay on BT-549, with CAKI-1, in the assay with CCRF-CEM and in the assay on DU-145 was > 10 µM (inactive) throughout. Also, the GI50 in the assay with HCC 2998 is > 10 µM (inactive); with HOP-92, 5.42 µM (inactive); with LOX IMVI, > 10 µM (inactive); in the assay with MOLT-4, > 10 µM (inactive); with PC-3, > 10 µM (inactive); with RPMI-8226 it was > 10 µM (inactive). For the same molecule, the GI50 in the assay on SF-295, in the assay on SK-MEL-28, in the assay with SK-MEL-5, in the assay with SK-OV-3, in the assay with T47D and with U-251 was > 10 µM (inactive) in each case. In addition, the GI50 in the assay with UACC-257 and in the assay with UO-31 was > 10 µM (inactive) in each case.
Turning to `O=[N+]([O-])c1cccc2nc3ccccc3c(NCCCCCNc3c4ccccc4nc4cccc([N+](=O)[O-])c34)c12`, the GI50 in the assay with 786-0 is 0.0157 µM (active); in the assay on A549, 0.0366 µM (active); in the assay on BT-549, 0.159 µM (active); with CAKI-1, 0.0476 µM (active); in the assay with CCRF-CEM, 0.0518 µM (active); in the assay with DU-145, 0.0211 µM (active). The GI50 in the assay with HCC 2998 was 0.0243 µM (active); in the assay with HOP-92 it was 0.0199 µM (active); with LOX IMVI it was 0.168 µM (active); with MOLT-4, 0.0203 µM (active); with PC-3 it was 0.102 µM (active); in the assay with RPMI-8226, 0.00828 µM (active). For the same molecule, the GI50 was 0.137 µM (active) in the assay with SF-295; 0.171 µM (active) in the assay with SK-MEL-28; 0.0895 µM (active) in the assay on SK-MEL-5; 0.19 µM (active) in the assay with SK-OV-3; 0.179 µM (active) in the assay on T47D; 0.0368 µM (active) in the assay on U-251. The values for the GI50 in the assay on UACC-257 and with UO-31 were 0.139 µM (active) and 0.134 µM (active), respectively.
Take `CCOP(=O)(OCC)/C(=C/NC(=S)c1ccncc1)C(=O)OC`: the GI50 in the assay with 786-0 was > 100 µM (inactive); with A549, > 100 µM (inactive); in the assay on BT-549, > 100 µM (inactive); in the assay on CAKI-1, > 100 µM (inactive); with CCRF-CEM, 20.6 µM (inactive); in the assay on DU-145 it was > 100 µM (inactive). The GI50 with HCC 2998, in the assay on HOP-92, in the assay with LOX IMVI, in the assay on MOLT-4, with PC-3 and in the assay with RPMI-8226 was > 100 µM (inactive) in each case. Also, the GI50 with SF-295, in the assay on SK-MEL-5, in the assay with SK-OV-3, in the assay on T47D, in the assay on U-251 and in the assay with UACC-257 was > 100 µM (inactive) throughout. For the same molecule, in the assay with UO-31, the GI50 is > 100 µM (inactive).
On to `O=C(O)c1c(Br)c(Br)c(Br)c(Br)c1C1c2ccc(O)cc2Oc2cc(O)ccc21`, for which the GI50 in the assay on 786-0 was > 100 µM (inactive); in the assay with A549 it was > 100 µM (inactive); with BT-549 it was > 100 µM (inactive); with CAKI-1, > 100 µM (inactive); in the assay on DU-145, > 100 µM (inactive); with HCC 2998, 68.1 µM (inactive). Besides, the GI50 in the assay with HOP-92 is > 100 µM (inactive); in the assay on LOX IMVI, > 100 µM (inactive); with MOLT-4, 3.67 µM (inactive); with PC-3, > 100 µM (inactive); with RPMI-8226 it was > 100 µM (inactive); in the assay with SF-295, > 100 µM (inactive). In addition, the GI50 with SK-MEL-28, with SK-MEL-5, with SK-OV-3, in the assay with T47D, in the assay with U-251 and in the assay with UACC-257 was > 100 µM (inactive) each time. In addition, the GI50 in the assay with UO-31 is 33 µM (inactive).
Consider `O=S(=O)(c1ccc(-c2nnc(-c3ccc(F)cc3)o2)cc1)c1ccc(-c2nnc(-c3ccc(F)cc3)o2)cc1`, for which the GI50 was 26.8 µM (inactive) in the assay with 786-0; > 100 µM (inactive) in the assay with A549; 91 µM (inactive) in the assay on BT-549; > 100 µM (inactive) with CAKI-1; > 100 µM (inactive) in the assay on CCRF-CEM; > 100 µM (inactive) in the assay with DU-145. In addition, the GI50 with HCC 2998 was > 100 µM (inactive); in the assay on HOP-92 it was 82.4 µM (inactive); in the assay with LOX IMVI, > 100 µM (inactive); with MOLT-4, > 100 µM (inactive); with PC-3 it was > 100 µM (inactive); in the assay on RPMI-8226 it was > 100 µM (inactive). Also, the GI50 in the assay with SF-295 is 55.3 µM (inactive); in the assay on SK-MEL-5, > 100 µM (inactive); in the assay with SK-OV-3 it was 30.4 µM (inactive); in the assay on T47D, > 100 µM (inactive); with U-251, 21.7 µM (inactive); with UACC-257 it was > 100 µM (inactive). For the same molecule, the GI50 with UO-31 was > 100 µM (inactive).
Consider `CCCNC(=S)N/C=C1\C(=O)Nc2ccccc2C1=O`, for which the GI50 in the assay on 786-0, in the assay with A549, in the assay with BT-549, with CAKI-1, in the assay with CCRF-CEM and with DU-145 was > 100 µM (inactive) throughout. Moreover, the GI50 in the assay with HCC 2998, with HOP-92, with LOX IMVI, in the assay with MOLT-4, in the assay with PC-3 and in the assay on RPMI-8226 was > 100 µM (inactive) in each case. In addition, the GI50 in the assay with SF-295, with SK-MEL-5, in the assay with SK-OV-3, in the assay with T47D, in the assay on U-251 and in the assay on UACC-257 was > 100 µM (inactive) throughout. Further, the GI50 with UO-31 is > 100 µM (inactive).
